Measured values reported in patent US20110098296A1, “Thiazole And Oxazole Kinase Inhibitors” (priority 2007, published 2011).
Counter-ions that a name gives are not always drawn.

Key:
EGFR = target: T1, EGFR (Homo sapiens, UniProt P00533); assay: EGFR substrate phosphorylation assay (HTRF); assay type: biochemical; conditions: Method (A): Enzyme Mix incubated with compound at 20° C. for 1 hr, reaction started by adding Substrate Mix
T1 construct: made in house; host or cells: baculovirus expression system
Method: (§1) Compounds of the present invention were tested for EGFR and ErbB-2 protein tyrosine kinase inhibitory activity in substrate phosphorylation assays using enzymes purified from a baculovirus expression system. Reagent production was conducted essentially as described in Brignola, P. S., et al., (2002) J. Biol. Chem. 277(2):1576-1585.
(§2) The method measures the ability of the isolated enzyme to catalyse the transfer of the gamma-phosphate from ATP onto the tyrosine residue of a biotinylated synthetic peptide referenced “Peptide C” in Brignola, P. S., et al., (2002) J. Biol. Chem. 277(2):1576-1585. The extent of tyrosine phosphorylation was measured using an anti-phosphotyrosine antibody, and quantified by homogenous time-resolved fluorescence (HTRF).
(§3) Reactions were performed in black 384-well polystyrene flat-bottom plates in a final volume of 20 μl. Assays were performed by adding 10 μl of each of the following solutions, Substrate Mix and Enzyme Mix: The Substrate Mix contained 100 mM 3-[N-morpholino]propanesulfonic acid (MOPS) (pH 7.5), 2 mM MnCl2, 20 μM ATP, 0.01% Tween-20, 0.1 mg/mL (BSA), 0.8 uM peptide substrate, and 1 mM dithiothreitol. The Enzyme Mix contained 100 mM MOPS (pH 7.5); 0.01% Tween-20; 0.1 mg/mL BSA, and either 0.8 nM EGFR, 10 nM ErbB2, or 1 nM ErbB4
(§4) During the course of these studies, two separate methods have been used to measure the potency of compounds. In Method A (indicated as “(A)” in the tables below), the Enzyme Mix was added to the compound plates and the plates were incubated at 20° C. for 1 hr. The reactions were then started by adding the Substrate Mix. In Method B (indicated as “(B)” in the tables below), the Substrate Mix was added to the compound plates first, then the reaction was started by adding the Enzyme Mix.
(§5) After initiating the reaction with either method describe above, the reactions were allowed to proceed for 90 minutes at 20° C. The reactions were then terminated by the addition of 20 μL 100 mM EDTA to each well. 40 μL/well of HTRF detection mix were added to the assay plates. The final concentrations of the detection reagents were: 100 mM HEPES (pH7.5), 0.1 mg/mL BSA, 15 nM streptavidin-labeled allophycocyanin (PerkinElmer), and 1 nM europium-labeled anti-phosphotyrosine antibody (PerkinElmer). Assay plates were left unsealed and were counted in a Wallac Multilabel Counter 1420 (PerkinElmer).
(§6) Compounds under analysis were dissolved in dimethylsulfoxide (DMSO) to 1.0 mM and serially diluted 1 to 3 with DMSO through twelve dilutions. 1 μL of each concentration was transferred to the corresponding well of an assay plate. This creates a final compound concentration range from 0.00027 to 47.6 μM.
(§7) The data for dose responses were plotted as % Inhibition calculated with the data reduction formula 100*(1−(U1−C2)/(C1−C2)) versus concentration of compound where U1 is the unknown value, C1 is the average control value obtained for 4.76% DMSO, and C2 is the average control value obtained for 0.035 M EDTA. Data were fitted with a curve described by:
(§8) where Vmax is the upper asymptote, Y2 is the Y intercept, and K is the IC50. The results for each compound were recorded as pIC50s, calculated as follows: […]

ErbB2 = target: T2, ErbB2 (Homo sapiens, UniProt P04626); assay: ErbB-2 substrate phosphorylation assay (HTRF); assay type: biochemical; conditions: Method (A): Enzyme Mix incubated with compound at 20° C. for 1 hr, reaction started by adding Substrate Mix
T2 construct: made in house; host or cells: baculovirus expression system
Method: as §1, §2, §3, §4, §5, §6, §7, §8

BT474 tumor cells = assay: Method C: Cell Growth Inhibition Assay (CellTiter-Glo), BT474; assay type: cell-based; conditions: Homo sapiens, BT-474, 72 h, 3 days, 4-parameter fit
Method: (§9) Human breast tumor cells (BT474) were cultured in RPMI (Mediatech 50-011-PB), containing 10% FBS (JRH Biosciences 12176) and 1% penicillin-streptomycin (Invitrogen 15140). Human head and neck tumor cells (HN5) were cultured in high glucose DMEM (Mediatech 50-013-PB) containing 10% FBS and 1% penicillin-streptomycin. Human colon tumor cells (Colo205) were cultured in RPMI (Mediatech 50-020-PB) containing 10% FBS and 1% penicillin-streptomycin. Human melanoma cancer cells (SK-MEL-28) were cultured in EMEM with nonessential amino acids (Mediatech 50-011-PB) containing 10% FBS, 1% sodium pyruvate (JT Baker 3354-04), and 1% penicillin-streptomycin. Human melanoma cancer cells (A375P F11s) were cultured in RPMI (Mediatech 50-020-PB) containing 10% FBS, 1% sodium pyruvate, and 1% penicillin-streptomycin. Human colon cancer cells (HT-29) were cultured in high glucose DMEM (Mediatech 50-013-PB) containing 10% FBS and 1% penicillin-streptomycin. Human melanoma cancer cells (SK-MEL-3) were cultured in McCoy's 5A (50-025-PB) containing 15% FBS, and 1% penicillin-streptomycin. All cell lines were maintained at 37° C. in a humidified 5% CO2, 95% air incubator. Cells were harvested using trypsin/EDTA (Invitrogen 25200), counted using an haemocytometer, and plated. For 96-well assays (using white full-area NUNC plates cat. #136102), cells were plated in 105 μL at the following densities (cells/well): HN5, 500; Colo205, 500; SK-MEL-28, 500; A375P-F11s, 500; HT-29, 500; SK-MEL-3, 500; and BT474, 3000. For 384-well assays (white full-area NUNC plates, cat. #781080), cells were plated in 48 μL at the following densities (cells/well): HN5, 500; Colo205, 500; SK-MEL-28, 500; A375P-F11s, 500; HT29, 500; SK-MEL-3, 500; and BT474, 2000.
(§10) The next day, compounds were diluted as follow: For 96-well assays, 13.5 μL of compound in DMSO were diluted using nine (9) serial 1:3 dilutions of 4.5 μL in 9 μL of DMSO. Medium (270 μl/well of RPMI with 10% FBS and 1% penicillin-streptomycin) was added to the plates. Aliquots (7 μl) were added to cells in the final assay giving a final DMSO concentration of 0.2%. For 384-well assays, 15 μL of compound in DMSO were diluted using nine (9) serial 1:3 dilutions of 5 μL in 10 μL of DMSO, followed by a further dilution of 5 μL of compound with 95 μL of medium, of which 2 μL were added to cells in the final assay giving a final DMSO concentration of 0.2%. Cells were incubated at 37° C., 5% CO2 for 3 days.
(§11) Total ATP was measured (as a surrogate estimate of cell number) using CellTiter-Glo® reagent (Promega G7571). Briefly, plates were removed from the incubator and allowed to equilibrate to room temperature for 30 minutes. CellTiter-Glo® (25 μL or 55 μL for 384-well or 96-well assays, respectively) reagent was added to each well and plates were shaken on an orbital plate shaker for 2 mins. Plates were incubated without shaking for a further 30 mins and read on an LJL Analyst GT reader in luminometer mode with an integration time of 0.5 seconds per well. Percent inhibition of cell growth was calculated relative to DMSO vehicle-treated control wells. Concentration of compound required to give 50% inhibition of vehicle-treated control cell growth (IC50) was interpolated using a 4-parameter fit for determining IC50 using the following equation: Y=A+((B−A)/(1+((C/X)̂D))) where X=IC50.

Colo205 tumor cells = assay: Method C: Cell Growth Inhibition Assay (CellTiter-Glo), Colo205; assay type: cell-based; conditions: Homo sapiens, COLO 205, 72 h, 3 days, 4-parameter fit
Method: as §9, §10, §11

SK-MEL-28 tumor cells = assay: Method C: Cell Growth Inhibition Assay (CellTiter-Glo), SK-MEL-28; assay type: cell-based; conditions: Homo sapiens, SK-MEL-28, 72 h, 3 days, 4-parameter fit
Method: as §9, §10, §11

T2 sequence (P04626 23-1255): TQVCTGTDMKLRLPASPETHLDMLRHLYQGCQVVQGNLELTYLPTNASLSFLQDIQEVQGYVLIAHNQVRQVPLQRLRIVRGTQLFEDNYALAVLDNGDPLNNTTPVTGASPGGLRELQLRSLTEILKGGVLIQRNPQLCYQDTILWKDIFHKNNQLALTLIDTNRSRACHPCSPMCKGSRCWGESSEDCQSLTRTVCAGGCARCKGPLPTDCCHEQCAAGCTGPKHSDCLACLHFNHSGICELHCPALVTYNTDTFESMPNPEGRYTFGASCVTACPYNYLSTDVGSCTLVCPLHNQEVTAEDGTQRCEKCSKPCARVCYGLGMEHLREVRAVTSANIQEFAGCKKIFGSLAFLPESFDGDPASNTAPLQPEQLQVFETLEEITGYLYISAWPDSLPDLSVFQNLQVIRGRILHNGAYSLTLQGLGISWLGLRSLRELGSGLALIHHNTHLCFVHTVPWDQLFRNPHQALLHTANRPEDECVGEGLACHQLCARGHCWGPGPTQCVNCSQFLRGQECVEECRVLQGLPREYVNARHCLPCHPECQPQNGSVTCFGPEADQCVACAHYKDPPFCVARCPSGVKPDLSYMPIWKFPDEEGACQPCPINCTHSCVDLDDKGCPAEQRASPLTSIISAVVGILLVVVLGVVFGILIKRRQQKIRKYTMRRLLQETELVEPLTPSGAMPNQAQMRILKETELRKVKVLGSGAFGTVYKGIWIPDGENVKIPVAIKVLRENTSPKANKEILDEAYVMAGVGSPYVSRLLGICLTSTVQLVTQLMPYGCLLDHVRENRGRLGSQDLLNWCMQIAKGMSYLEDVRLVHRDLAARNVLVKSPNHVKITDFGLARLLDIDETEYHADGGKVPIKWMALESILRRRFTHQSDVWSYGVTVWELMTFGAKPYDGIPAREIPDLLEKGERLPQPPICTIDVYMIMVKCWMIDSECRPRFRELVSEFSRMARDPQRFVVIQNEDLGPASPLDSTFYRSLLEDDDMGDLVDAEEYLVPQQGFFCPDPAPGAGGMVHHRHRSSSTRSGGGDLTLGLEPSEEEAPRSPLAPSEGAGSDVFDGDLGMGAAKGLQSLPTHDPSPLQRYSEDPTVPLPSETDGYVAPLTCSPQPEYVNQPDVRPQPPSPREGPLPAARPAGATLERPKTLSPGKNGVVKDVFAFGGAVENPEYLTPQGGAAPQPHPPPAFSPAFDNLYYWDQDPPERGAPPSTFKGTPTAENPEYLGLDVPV
T1 sequence (P00533 25-1210): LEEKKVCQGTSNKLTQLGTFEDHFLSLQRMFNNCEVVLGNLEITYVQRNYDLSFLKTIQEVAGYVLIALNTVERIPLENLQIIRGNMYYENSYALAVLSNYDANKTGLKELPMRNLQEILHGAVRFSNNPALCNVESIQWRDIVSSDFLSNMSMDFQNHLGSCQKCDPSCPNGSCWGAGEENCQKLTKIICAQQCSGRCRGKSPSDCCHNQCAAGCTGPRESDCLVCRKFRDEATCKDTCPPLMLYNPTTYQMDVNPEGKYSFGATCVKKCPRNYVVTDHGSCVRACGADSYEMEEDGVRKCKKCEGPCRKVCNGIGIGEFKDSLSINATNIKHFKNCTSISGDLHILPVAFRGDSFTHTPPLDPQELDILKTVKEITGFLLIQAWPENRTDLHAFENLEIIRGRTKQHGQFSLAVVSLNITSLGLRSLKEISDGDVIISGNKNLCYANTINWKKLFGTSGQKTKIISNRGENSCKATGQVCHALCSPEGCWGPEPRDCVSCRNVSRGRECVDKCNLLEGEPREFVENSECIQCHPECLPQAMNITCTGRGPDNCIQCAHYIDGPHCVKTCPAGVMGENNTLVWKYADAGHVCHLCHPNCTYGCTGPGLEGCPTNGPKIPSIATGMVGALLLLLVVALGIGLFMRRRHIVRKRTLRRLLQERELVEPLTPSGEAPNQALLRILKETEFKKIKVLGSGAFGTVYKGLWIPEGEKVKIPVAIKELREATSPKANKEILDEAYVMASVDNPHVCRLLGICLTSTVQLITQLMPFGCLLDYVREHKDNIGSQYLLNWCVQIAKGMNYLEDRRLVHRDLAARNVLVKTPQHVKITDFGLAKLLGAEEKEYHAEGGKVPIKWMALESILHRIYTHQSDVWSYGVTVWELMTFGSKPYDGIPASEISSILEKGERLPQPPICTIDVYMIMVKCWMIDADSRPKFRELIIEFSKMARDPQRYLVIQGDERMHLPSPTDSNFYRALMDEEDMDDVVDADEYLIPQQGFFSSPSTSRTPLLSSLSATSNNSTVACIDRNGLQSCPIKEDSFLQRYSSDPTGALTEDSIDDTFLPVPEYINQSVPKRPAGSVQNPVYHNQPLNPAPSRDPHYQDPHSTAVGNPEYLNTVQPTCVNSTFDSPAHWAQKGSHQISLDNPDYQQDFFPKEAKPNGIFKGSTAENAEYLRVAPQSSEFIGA

SMILES	IC50 (EGFR) [nM]	IC50 (ErbB2) [nM]	IC50 (BT474 tumor cells) [nM]	IC50 (Colo205 tumor cells) [nM]	IC50 (SK-MEL-28 tumor cells) [nM]
CC(C)(C)S(=O)(=O)Cc1nc(-c2cccc(NC(=O)c3c(F)cccc3F)c2)c(-c2ccnc(Nc3ccc(OCCN4CCCC4)c(Cl)c3)n2)s1 [Example 119]	< 100	< 100	100 to 1000	100 to 1000	> 1000
CN1CCc2ccc(Nc3nccc(-c4sc(CS(=O)(=O)C(C)(C)C)nc4-c4cccc(NC(=O)c5c(F)cccc5F)c4)n3)cc2C1 [Example 120, N-[3-(2-{[(1,1-Dimethylethyl)sulfonyl]methyl}-5-{2-[(2-methyl-1,2,3,4-tetrahydro-7-isoquinolinyl)amino]-4-pyrimidinyl}-1,3-thiazol-4-yl)phenyl]-2,6-difluorobenzamide]	< 100	< 100	< 100	100 to 1000	> 1000
CC(C)c1nc(-c2cccc(NC(=O)c3c(F)cccc3F)c2)c(-c2ccnc(Nc3cccc(OCCN(C)C)c3)n2)s1 [Example 122]	< 100	< 100	100 to 1000	> 1000	> 1000
CC(C)(C)c1nc(-c2cccc(NC(=O)c3c(F)cccc3F)c2)c(-c2ccnc(Nc3cccc(CN4CCCC4)c3)n2)s1 [Example 123, N-{3-[2-(1,1-Dimethylethyl)-5-(2-{[3-(1-pyrrolidinylmethyl)phenyl]amino}-4-pyrimidinyl)-1,3-thiazol-4-yl]phenyl}-2,6-difluorobenzamide]	< 100	< 100	100 to 1000	> 1000	> 1000
CN1CCC(c2nc(-c3cccc(NC(=O)c4c(F)cccc4F)c3)c(-c3ccnc(Nc4ccc5c(c4)CN(C)CC5)n3)s2)CC1 [Example 125, 2,6-Difluoro-N-[3-(2-(1-methyl-4-piperidinyl)-5-{2-[(2-methyl-1,2,3,4-tetrahydro-7-isoquinolinyl)amino]-4-pyrimidinyl}-1,3-thiazol-4-yl)phenyl]benzamide]	< 100	< 100	100 to 1000	100 to 1000	100 to 1000
Cc1nc(-c2cccc(NC(=O)Nc3ccc(Cl)c(C(F)(F)F)c3)c2)c(-c2ccnc(Nc3ccc4c(c3)CN(C)CC4)n2)s1 [Example 129]	100 to 1000	< 100	> 1000	100 to 1000	> 1000
COc1ccccc1C(=O)Nc1cccc(-c2nc(C)sc2-c2ccnc(Nc3ccc4c(c3)CN(C)CC4)n2)c1 [Example 130, N-[3-(2-Methyl-5-{2-[(2-methyl-1,2,3,4-tetrahydro-7-isoquinolinyl)amino]-4-pyrimidinyl}-1,3-thiazol-4-yl)phenyl]-2-(methyloxy)benzamide]	< 100	< 100	> 1000	> 1000	> 1000
COc1cccc(C(=O)Nc2cccc(-c3nc(C)sc3-c3ccnc(Nc4ccc5c(c4)CN(C)CC5)n3)c2)c1 [Example 132, N-[3-(2-Methyl-5-{2-[(2-methyl-1,2,3,4-tetrahydro-7-isoquinolinyl)amino]-4-pyrimidinyl}-1,3-thiazol-4-yl)phenyl]-3-(methyloxy)benzamide trifluoroacetate]	< 100	< 100	100 to 1000	> 1000	> 1000
Cc1nc(-c2cccc(NC(=O)Nc3ccc(Cl)c(C(F)(F)F)c3)c2)c(-c2ccnc(Nc3ccc(OCCN(C)C)c(Cl)c3)n2)s1 [Example 133, N-[3-(5-{2-[(3-Chloro-4-{[2-(dimethylamino)ethyl]oxy}Phenyl)amino]-4-pyrimidinyl}-2-methyl-1,3-thiazol-4-yl)phenyl]-N′-[4-chloro-3-(trifluoromethyl)phenyl]urea]	100 to 1000	100 to 1000	> 1000	100 to 1000	100 to 1000
Cc1cccc(C(=O)Nc2cccc(-c3nc(C)sc3-c3ccnc(Nc4ccc(OCCN(C)C)c(Cl)c4)n3)c2)c1 [Example 135, N-[3-(5-{2-[(3-Chloro-4-{[2-(dimethylamino)ethyl]oxy}phenyl)amino]-4-pyrimidinyl}-2-methyl-1,3-thiazol-4-yl)phenyl]-3-methylbenzamide]	< 100	< 100	100 to 1000	> 1000	> 1000
Cc1nc(-c2cccc(NC(=O)c3cccc(Cl)c3)c2)c(-c2ccnc(Nc3ccc(OCCN(C)C)c(Cl)c3)n2)s1 [Example 136, 3-Chloro-N-[3-(5-{2-[(3-chloro-4-{[2-(dimethylamino)ethyl]oxy}phenyl)amino]-4-pyrimidinyl}-2-methyl-1,3-thiazol-4-yl)phenyl]benzamide]	< 100	< 100	100 to 1000	> 1000	> 1000
